Measured values: patent US20250326771A1, “PIPERAZINE DERIVATIVES USEFUL IN HIV THERAPY” (VIIV HEALTHCARE COMPANY, priority 2022, published 2025)

Tests used:
XIAP-BIR3 = XIAP-BIR3 (Homo sapiens (Human), UniProt P98170); assay: BIR binding assay (FRET competition), XIAP BIR3
Experimental: (§1) The BIR domain binding assays are FRET based competition assays that utilize His-tagged versions of each of the BIR2 and BIR3 domains from cIAP1, cIAP2, and XIAP (each domain assayed separately) each at a custom optimal concentration and a probe, 200 nM SMAC/DIABLO peptide […] labelled with AlexaFluor647 (part #crb 1110326h, Discovery Peptides). The assay is conducted in 50 mM HEPES, […], 1 mM CHAPS, 5% Glycerol, 1 mM DTT, in dI water with a final pH of 7.4 and final volume of 20 uL. Final protein domain concentrations are: 50 nM cIAP1-BIR3 (Part #APT-11-370 Reaction Biology), 100 nM XIAP-BIR3 (Part #APT-11-351 Reaction Biology), 200 nM XIAP-BIR2 (Part #APT-11-470 Reaction Biology), 325 nM cIAP2-BIR2 (Part #APT-11-489 Reaction Biology), 50 nM cIAP2-BIR3 (Part #APT-11-372 Reaction Biology), 325 nM cIAP1-BIR2 (Part #APT-11-487 Reaction Biology). Compounds were plated using a HP Tecan D300 printer in a final total volume of 202 nl and DMSO concentration normalized across the 15-point, 3-fold dilution series. Peptide and probe were prepared at 2× relative to the concentrations above in binding buffer, 10 uL added to the prepared compound plates, and incubated for 60 minutes. LANCE Eu-W1024 (part #AD0401 Perkin Elmer #, vendor) was prepared at 2× concentration in binding buffer for final concentration of 2 nM, 10 uL added to each well, and plates incubated for 30 minutes. Plates were read on an ENVISION multifunction plate reader with […] laser excitation to obtain the 615 nm/665 nm emission ratio as indicative of probe:protein proximity. Data was analyzed using GraphPad PRISM and curves fit using log(inhibitor) vs. response—Variable slope (four […] method to obtain IC50 and pIC50 values.

[1] = system: Jurkat HIV-luciferase clones; assay: Jurkat latency reversal assay; type: cell-based; settings: Homo sapiens, 48 h; Jurkat latency reversal assay potency; read-out: Jurkat pEC50 (converted)
Experimental: Jurkat HIV-luciferase clones were maintained in RPMI medium 1640 (Gibco by Life Technologies) containing 10% (vol/vol) fetal bovine serum (SAFC/Sigma-Aldrich) and 25 units/mL penicillin, 25 units/mL streptomycin (Gibco by Life Technologies), and were split 1:4 every 3 to 4 days to maintain a cell density of ˜0.3 to 1 million cells/mL. The Jurkat clones were maintained with the addition of 500 nM EFV in the medium. Three Jurkat cell clones (C16, 115, and N6), each harboring one or two integrated HIV proviruses expressing the luciferase reporter gene, were added at equal amounts for a total of 5,000 cells per well to 384-well plates containing compound titrations. Dose-response testing was performed on compounds dissolved in dimethyl sulfoxide (DMSO; Fisher Scientific, Merelbeke, Belgium) dispensed in duplicate serial 3-fold, 14-point titrations using a D300e Digital Droplet Dispenser (Hewlett-Packard) to give final assay concentrations of 10 μM to […] in 50 μL of medium at 0.5% DMSO (vol/vol) final concentration. Cells and compound were incubated at 37° C. for 48 hours, unless otherwise indicated, followed by the addition of 20 μL of Steady-Glo® Luciferase (Promega). Luminescence resulting from the induction of the virally expressed luciferase was measured using an EnVision 2102 Multilabel Plate Reader (Perkin Elmer). Dose-response relationships were analyzed with GraphPad PRISM 6 using a four-parameter logistic regression model to calculate the concentration of compound that gives half-maximal response (EC50) and the maximal percent activation compared to the vehicle control.

cIAP2-BIR3 = cIAP2-BIR3 (Homo sapiens (Human), UniProt Q13489); assay: BIR binding assay (FRET competition), cIAP2 BIR3
Experimental: as §1

cIAP1-BIR3 = cIAP1-BIR3 (Homo sapiens (Human), UniProt Q13490); assay: BIR binding assay (FRET competition), cIAP1 BIR3
Experimental: as §1

cIAP2-BIR3, sequence (Q13489 238-349): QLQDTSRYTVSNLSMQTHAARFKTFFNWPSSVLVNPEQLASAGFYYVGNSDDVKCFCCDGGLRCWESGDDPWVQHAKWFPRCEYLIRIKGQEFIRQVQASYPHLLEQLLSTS
XIAP-BIR3, sequence (P98170 241-356): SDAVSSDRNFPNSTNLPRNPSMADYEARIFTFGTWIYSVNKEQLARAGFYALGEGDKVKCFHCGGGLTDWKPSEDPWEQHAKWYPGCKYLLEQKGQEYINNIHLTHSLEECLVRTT
cIAP1-BIR3, sequence (Q13490 253-363): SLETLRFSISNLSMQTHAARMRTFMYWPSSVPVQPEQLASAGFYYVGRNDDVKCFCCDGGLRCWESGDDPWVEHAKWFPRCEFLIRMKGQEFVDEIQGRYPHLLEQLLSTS

Row | Compound | IC50 (XIAP-BIR3) | EC50 [1] | IC50 (cIAP2-BIR3) | IC50 (cIAP1-BIR3)
1 | C[C@@H]1CN(CC(=O)N2CC(C)(C)c3[nH]c(=O)c(Cc4ccc(F)cc4)cc32)[C@@H](CN2CCC(CCCC3CCN(C[C@H]4CN[C@H](C)CN4CC(=O)N4CC(C)(C)c5[nH]c(=O)c(Cc6ccc(F)cc6)cc54)CC3)CC2)CN1 [Example 94, 1,1′-(2,2′-((3R,3′R,6R,6′R)-((propane-1,3-diylbis(piperidine-4,1-diyl))bis(methylene))bis(3-methylpiperazine-6,1-diyl))bis(acetyl))bis(6-(4-fluorobenzyl)-3,3-dimethyl-1,2,3,4-tetrahydro-5H-pyrrolo[3,2-b]pyridin-5-one)] | 15.8 to 31.6 nM | 0.49 to 12.6 nM | 7.94 to 15.8 nM | 7.94 to 15.8 nM
2 | C[C@@H]1CN(CC(=O)N2CC(C)(C)c3[nH]c(=O)c(Cc4ccc(F)cc4)cc32)[C@@H](CN2CCO[C@H](COc3ccc(C(C)(C)c4ccc(C(C)(C)c5ccc(OC[C@@H]6CN(C[C@H]7CN[C@H](C)CN7CC(=O)N7CC(C)(C)c8[nH]c(=O)c(Cc9ccc(F)cc9)cc87)CCO6)cc5)cc4)cc3)C2)CN1 [Example 62, 1,1′-(2,2′-((3R,3′R,6R,6′R)-(((2S,2'S)-((((1,4-phenylenebis(propane-2,2-diyl))bis(4,1-phenylene))bis(oxy))bis(methylene))bis(morpholine-2,4-diyl))bis(methylene))bis(3-methylpiperazine-6,1-diyl))bis(acetyl))bis(6-(4-fluorobenzyl)-3,3-dimethyl-1,2,3,4-tetrahydro-5H-pyrrolo[3,2-b]pyridin-5-one)] | 31.6 to 501 nM | 12.6 to 63.1 nM | 31.6 to 501 nM | 31.6 to 501 nM
3 | C[C@@H]1CN(CC(=O)N2CC(C)(C)c3[nH]c(=O)c(Cc4ccc(F)cc4)cc32)[C@@H](CN2CCO[C@H](COc3ccc(S(=O)(=O)c4ccc(OC[C@@H]5CN(C[C@H]6CN[C@H](C)CN6CC(=O)N6CC(C)(C)c7[nH]c(=O)c(Cc8ccc(F)cc8)cc76)CCO5)cc4)cc3)C2)CN1 [Example 57, 1,1′-(2,2′-((3R,3′R,6R,6′R)-(((2S,2'S)-(((sulfonylbis(4,1-phenylene))bis(oxy))bis(methylene))bis(morpholine-2,4-diyl))bis(methylene))bis(3-methylpiperazine-6,1-diyl))bis(acetyl))bis(6-(4-fluorobenzyl)-3,3-dimethyl-1,2,3,4-tetrahydro-5H-pyrrolo[3,2-b]pyridin-5-one)] | 31.6 to 501 nM | 12.6 to 63.1 nM | 15.8 to 31.6 nM | 31.6 to 501 nM
4 | C[C@@H]1CN(CC(=O)N2CC(C)(C)c3[nH]c(=O)c(Cc4ccc(Cl)cc4Cl)cc32)[C@@H](CN2CCO[C@H](COc3cccc(OC[C@@H]4CN(C[C@H]5CN[C@H](C)CN5CC(=O)N5CC(C)(C)c6[nH]c(=O)c(Cc7ccc(Cl)cc7Cl)cc65)CCO4)c3)C2)CN1 [Compound 187] | 31.6 to 501 nM | 0.49 to 12.6 nM | 7.94 to 15.8 nM | 7.94 to 15.8 nM
5 | C[C@@H]1CN(CC(=O)N2CC(C)(C)c3[nH]c(=O)c(Cc4ccc(F)cc4)cc32)[C@@H](CN2CCC(CCCOc3cccc(OCCCC4CCN(C[C@H]5CN[C@H](C)CN5CC(=O)N5CC(C)(C)c6[nH]c(=O)c(Cc7ccc(F)cc7)cc65)CC4)c3)CC2)CN1 [Example 109, 1,1′-(2,2′-((3R,3′R,6R,6′R)-((((1,3-phenylenebis(oxy))bis(propane-3,1-diyl))bis(piperidine-4,1-diyl))bis(methylene))bis(3-methylpiperazine-6,1-diyl))bis(acetyl))bis(6-(4-fluorobenzyl)-3,3-dimethyl-1,2,3,4-tetrahydro-5H-pyrrolo[3,2-b]pyridin-5-one)] |  | 12.6 to 63.1 nM | 7.94 to 15.8 nM | 15.8 to 31.6 nM
